In patent US4205086A, “Method for the treatment of gallstones” (priority 1977, dated 1980):
Where two headings read alike, the source gives them in different places.

Tests used:
[1] = cited from earlier work; for tolerability by patients / toxicity: organic solvents; for solubilizing capacity for gallstones: 100-200 mM solutions
[2] = studies evaluating the solubility of gallstones in a variety of compounds (Example 3); settings: observed for several days
Experimental: Studies are conducted to evaluate the solubility of gallstones in a variety of compounds.

[3] = treatment of gallstones by perfusion, general results in practice; assay type: in vivo, human (patient); settings: for solvency for the gallstones: in vivo; for results in treatment of gallstones: perfusion
Description: In accordance with the method of the present invention a selected compound is perfused adjacent the gallstone. For the purposes herein, the term perfusion is intended to encompass the introduction of the compound in a manner that will cause the compound to pass over or around the subject gallstone, and includes equivalent terms such as infusion. The perfusion may be accomplished in accordance with normal procedures, and for example may be performed with a T-tube or an endoscope. The compound utilized by the present invention thereby contacts and gradually dissolves the gallstone. The response of the gallstone to this procedure may be followed, for example, by repeated cholangiograms.
A compound useful in accordance with the method of the present invention may also comprise a mixture of fatty acids and alcohol esters of fatty acids. Typically the fatty acid esters would be esters of the same fatty acids which exist separately in the solution, although such is not required. It is preferred that the fatty acids which exist either as themselves or in the ester form have from about 2 to about 12 carbon atoms, with from about 8 to about 10 carbon atoms being more preferred. In a most preferred embodiment of the present invention, the method comprises the perfusion of a compound having a mixture of fatty acids from about 8 to about 10 carbon atoms and alcohol esters, particularly glycerides, of fatty acids having from about 8 to about 10 carbon atoms. […].

[4] = viscosity of compounds used for perfusion (in words); assay type: physicochemical
Description: It is also preferable that the compound not be excessively viscous at the perfusion temperature in view of the need for the compound to move through the perfusion equipment and to pass over or around the gallstone. The degree of viscosity which is tolerable, and the compounds therefore useful in the present invention, may be readily determined by experiment. […] Fatty acids useful in the present invention are generally those having short to medium carbon chain lengths, or from about 2 to about 12 carbon atoms. […]. As previously mentioned, these fatty acids which have melting points above body temperature, which is approximately 37° C., may be combined with the fatty acids which are liquid at body temperature to provide a liquid mixture having relatively low proportions of the higher fatty acids.

[5] = test comparing the solubility of gallstones in glycerol mono-octanoate and 200 mM sodium cholate (Example 2); design: species or system human (patient); settings: six days; sodium cholate 200 mM, mono-octanoate solution as in Example 1

C[C@H](CCC(=O)O)[C@H]1CC[C@H]2[C@@H]3[C@H](O)C[C@@H]4C[C@H](O)CC[C@]4(C)[C@H]3CC[C@]12C [Kenodeoxycholic acid]
results in dissolution of gallstones ([1]; prior art): more preferable, but also is relatively slow

CCCCCCCCCC(=O)OCCCC [butanol decanoate]
solubility of gallstones in the compound [2]: suitably soluble

ClC(Cl)Cl [chloroform]
tolerability by patients ([1]; prior art): poorly tolerated | toxicity ([1]; prior art): potentially toxic

C=C(C)[C@H]1CC=C(C)CC1 [d-limonene]
tolerability by patients ([1]; prior art): poorly tolerated | toxicity ([1]; prior art): potentially toxic | results in dissolution of gallstones ([1]; prior art): without highly favorable results

CCCCCCCC(=O)OCC [ethanol octanoate]
solubility of gallstones in the compound [2]: suitably soluble

CCOCC [ether]
tolerability by patients ([1]; prior art): poorly tolerated | toxicity ([1]; prior art): potentially toxic | results in dissolution of gallstones ([1]; prior art): without highly favorable results

CCCCCCCC(=O)OCCO [ethylene glycol mono-octanoate]
solubility of gallstones in the compound [2]: suitably soluble

CCCCCCCC(=O)OCC(O)CO (stereo not shown) [glycerol mono-octanoate]
tolerability and adverse symptoms or effects (human, in vivo): tolerated the procedure well and showed no adverse symptoms or effects | stones on follow-up after six days of perfusion (perfused at 5 ml per hour, after six days, patient): only two very small lucencies were apparent | stones on follow-up after 3 additional days of perfusion (perfused at 5 ml per hour, six days plus 3 additional days, patient): no evidence of the stones | results of similar clinical trials (similar clinical trials at the Mayo Clinic): equally good results | solubility of gallstones in the compound [2]: suitably soluble | solvency for the gallstones [3]: high solvency | results in treatment of gallstones [3]: excellent results | results in treatment of gallstones ([3]; listed as mono-glyceride of octanoic acid): particularly excellent results | viscosity [4]: low viscosity

CCCCCCCC(=O)OCC(COC(=O)CCCCCCC)OC(=O)CCCCCCC [glycerol tri-octanoate]
solubility of gallstones in the compound [2]: suitably soluble

C[C@H](CCC(=O)O)[C@H]1CC[C@H]2[C@@H]3[C@H](O)C[C@@H]4C[C@H](O)CC[C@]4(C)[C@H]3C[C@H](O)[C@]12C [sodium cholate]
change in size of stones [5]: little or no apparent change | solubilizing capacity for gallstones ([1]; prior art): definite but low | bile acid diarrhea ([1]; uncontrolled studies): often with bile acid diarrhea | time to disappearance of distal common bile duct stones ([1]; uncontrolled studies): 1-4 weeks

Oxycholic acid
solubilizing capacity for gallstones ([1]; prior art): definite but low | bile acid diarrhea ([1]; in vivo): often with bile acid diarrhea | time to disappearance of distal common bile duct stones ([1]; uncontrolled studies): 1-4 weeks

glycerol di-decanoate
solubility of gallstones in the compound [2]: suitably soluble

heparin
fragmentation or dissolution of gallstones ([1]; in saline solution, prior art): function poorly

propylene glycol mono-octanoate
solvency for the gallstones [3]: high solvency | results in treatment of gallstones [3]: particularly excellent results | viscosity [4]: low viscosity
